Consider 1 compound from paper PMC8230565, “Bisavenathramide Analogues as Nrf2 Inductors and Neuroprotectors in In Vitro Models of Oxidative Stress and Hyperphosphorylation” (Antioxidants, 2021).

This experiment deals with Nrf2. Kind of experiment: Nrf2 nuclear translocation, immunocytochemistry in AREc32 cells. The experiment is classed as cell-based. To be noted: 30 μM, 1 h. How it is done: AREc32 or SH-SY5Y cells were seeded in 24 multiwell plates (40,000 or 100,000 cells per well, respectively) on poly-D-Lysine coated crystal slides. AREc32 cells were incubated for 1 h with the compounds under assay, and were then fixed by treatment with a 4% solution of paraformaldehyde in PBS for 15 min, followed by three washings with PBS in 5 min intervals. SH-SY5Y cells were treated with compounds during 24 h, and then co-incubated with medium (basal), okadaic acid (OA, 20 nM), or OA plus compound 3i (10 μM). […]
Figure 4 Compound 3g effectively induces Nrf2 translocation and overexpression of Nrf2-ARE dependent genes in AREc32 cells. […] (B) Nrf2 nuclear localization analysis, measured as integrated intensity localized at the nucleus. HMOX1 (C) and NQO1 (D) expression in AREc32, measured by Western blot analysis. Cells were treated with compound 3g (30 µM), sulforaphane (10 µM), or culture medium (basal) for 24 h and protein expression was then assessed. Graphs are expressed as densitometric quantification using β-actin for normalization (bottom). […] Data are expressed as mean ± S.E.M. of six independent experiments. […]

With `COC(=O)C1=C(C)N(CCc2ccccc2)C(=O)/C1=C\c1cc(OC)c(OC)c(OC)c1` [Compound 3g, Methyl (Z)-2-Methyl-5-oxo-1-phenethyl-4-(3,4,5-trimethoxybenzylidene)-4,5-dihydro-1H-pyrrole-3-carboxylate], the “Nrf2 distribution in cells” value is “predominately nuclear distribution of Nrf2”.
